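Where inhibition never reached the appropriate level, the endpoint shown equals the highest concentration tested. Otherwise, values were interpolated linearly from a five-concentration, 48-hour dose response in 96-well plates. The concentration for 50% growth inhibition is given as GI50. TGI denotes the concentration required for complete inhibition of growth.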
Key:
Assay in all cases: growth of human tumour cells (NCI), 48 h; in the data active = GI50 below about 0.43 µM; inactive = the rest
A498 renal = tested on: A498 renal
A549 NSCLC = tested on: A549 NSCLC
ACHN renal = tested on: ACHN renal
BT-549 breast = tested on: BT-549 breast
CAKI-1 renal = tested on: CAKI-1 renal
CCRF-CEM leukemia = tested on: CCRF-CEM leukemia
COLO 205 colon = tested on: COLO 205 colon
DU-145 prostate = tested on: DU-145 prostate
EKVX NSCLC = tested on: EKVX NSCLC
HCC-2998 colon = tested on: HCC-2998 colon
HCT-116 colon = tested on: HCT-116 colon
HCT-15 colon = tested on: HCT-15 colon
HL-60(TB) leukemia = tested on: HL-60(TB) leukemia
HOP-62 NSCLC = tested on: HOP-62 NSCLC
HOP-92 NSCLC = tested on: HOP-92 NSCLC
HS 578T breast = tested on: HS 578T breast
HT29 colon = tested on: HT29 colon
IGROV1 ovarian = tested on: IGROV1 ovarian
K-562 leukemia = tested on: K-562 leukemia
KM12 colon = tested on: KM12 colon
LOX IMVI melanoma = tested on: LOX IMVI melanoma
M14 melanoma = tested on: M14 melanoma
MALME-3M melanoma = tested on: MALME-3M melanoma
MCF7 breast = tested on: MCF7 breast
MDA-MB-231 breast = tested on: MDA-MB-231 breast
MDA-MB-435 = tested on: MDA-MB-435
MOLT-4 leukemia = tested on: MOLT-4 leukemia
NCI-H226 lung = tested on: NCI-H226 lung
NCI-H23 lung = tested on: NCI-H23 lung
NCI-H460 lung = tested on: NCI-H460 lung
NCI-H522 lung = tested on: NCI-H522 lung
NCI/ADR-RES ovarian = tested on: NCI/ADR-RES ovarian
OVCAR-3 ovarian = tested on: OVCAR-3 ovarian
OVCAR-4 ovarian = tested on: OVCAR-4 ovarian
OVCAR-5 ovarian = tested on: OVCAR-5 ovarian
OVCAR-8 ovarian = tested on: OVCAR-8 ovarian
PC-3 prostate = tested on: PC-3 prostate
RPMI-8226 leukemia = tested on: RPMI-8226 leukemia
RXF 393 renal = tested on: RXF 393 renal
SF-268 CNS = tested on: SF-268 CNS
SF-295 CNS = tested on: SF-295 CNS
SF-539 CNS = tested on: SF-539 CNS
SK-MEL-2 melanoma = tested on: SK-MEL-2 melanoma
SK-MEL-28 melanoma = tested on: SK-MEL-28 melanoma
SK-MEL-5 melanoma = tested on: SK-MEL-5 melanoma
SK-OV-3 ovarian = tested on: SK-OV-3 ovarian
SN12C renal = tested on: SN12C renal
SNB-19 CNS = tested on: SNB-19 CNS
SNB-75 CNS = tested on: SNB-75 CNS
SR leukemia = tested on: SR leukemia
SW-620 colon = tested on: SW-620 colon
T-47D breast = tested on: T-47D breast
TK-10 renal = tested on: TK-10 renal
U251 CNS = tested on: U251 CNS
UACC-257 melanoma = tested on: UACC-257 melanoma
UACC-62 melanoma = tested on: UACC-62 melanoma

COc1ccc(-c2c(C#N)cnc(N)c2-c2nc3cc(C)c(C)cc3[nH]2)cc1
> 100 µM: TGI (ACHN renal) | TGI (BT-549 breast) | TGI (CAKI-1 renal) | TGI (CCRF-CEM leukemia) | TGI (EKVX NSCLC) | TGI (HCC-2998 colon) | TGI (HCT-116 colon) | TGI (HCT-15 colon) | TGI (HL-60(TB) leukemia) | TGI (HS 578T breast) | TGI (HT29 colon) | TGI (IGROV1 ovarian) | TGI (K-562 leukemia) | TGI (KM12 colon) | TGI (LOX IMVI melanoma) | TGI (M14 melanoma) | TGI (MCF7 breast) | TGI (MDA-MB-231 breast) | TGI (MOLT-4 leukemia) | TGI (NCI-H226 lung) | TGI (NCI-H460 lung) | TGI (NCI/ADR-RES ovarian) | TGI (OVCAR-4 ovarian) | TGI (OVCAR-5 ovarian) | TGI (PC-3 prostate) | TGI (RPMI-8226 leukemia) | TGI (SK-MEL-28 melanoma) | TGI (SK-MEL-5 melanoma) | TGI (SN12C renal) | TGI (SR leukemia) | TGI (SW-620 colon) | TGI (T-47D breast) | TGI (UACC-257 melanoma) | TGI (UACC-62 melanoma)
41.9 µM: TGI (SF-539 CNS)
12.7 µM: TGI (U251 CNS)
23.8 µM: TGI (DU-145 prostate)
23.4 µM: TGI (SF-295 CNS)
98 µM: TGI (SK-MEL-2 melanoma)
18.4 µM: TGI (SK-OV-3 ovarian)
inactive: GI50 (A498 renal) 10.7 µM | GI50 (A549 NSCLC) 6.54 µM | GI50 (ACHN renal) 39.8 µM | GI50 (BT-549 breast) 30.6 µM | GI50 (CAKI-1 renal) 14.6 µM | GI50 (CCRF-CEM leukemia) 25.6 µM | GI50 (COLO 205 colon) 7.78 µM | GI50 (DU-145 prostate) 6.92 µM | GI50 (EKVX NSCLC) 15.8 µM | GI50 (HCC-2998 colon) 11 µM | GI50 (HCT-116 colon) 4.63 µM | GI50 (HCT-15 colon) 5.81 µM | GI50 (HL-60(TB) leukemia) 83.6 µM | GI50 (HOP-62 NSCLC) 3.65 µM | GI50 (HOP-92 NSCLC) 2.65 µM | GI50 (HS 578T breast) 5.87 µM | GI50 (HT29 colon) 4.79 µM | GI50 (IGROV1 ovarian) 16 µM | GI50 (K-562 leukemia) 6.03 µM | GI50 (KM12 colon) 3.47 µM | GI50 (LOX IMVI melanoma) 5.74 µM | GI50 (M14 melanoma) 6.61 µM | GI50 (MALME-3M melanoma) 6 µM | GI50 (MCF7 breast) 6.34 µM | GI50 (MDA-MB-231 breast) 8.28 µM | GI50 (MDA-MB-435) 1.95 µM | GI50 (MOLT-4 leukemia) > 100 µM | GI50 (NCI-H226 lung) 16.4 µM | GI50 (NCI-H23 lung) 5.37 µM | GI50 (NCI-H460 lung) 18.1 µM | GI50 (NCI-H522 lung) 4.74 µM | GI50 (NCI/ADR-RES ovarian) 6.84 µM | GI50 (OVCAR-3 ovarian) 14.8 µM | GI50 (OVCAR-4 ovarian) 22.5 µM | GI50 (OVCAR-5 ovarian) 52.4 µM | GI50 (OVCAR-8 ovarian) 5.2 µM | GI50 (PC-3 prostate) 8.86 µM | GI50 (RPMI-8226 leukemia) 32.5 µM | GI50 (RXF 393 renal) 5.68 µM | GI50 (SF-268 CNS) 9.8 µM | GI50 (SF-295 CNS) 6.41 µM | GI50 (SF-539 CNS) 11.5 µM | GI50 (SK-MEL-2 melanoma) 10.8 µM | GI50 (SK-MEL-28 melanoma) 17.2 µM | GI50 (SK-MEL-5 melanoma) 8.78 µM | GI50 (SK-OV-3 ovarian) 4.84 µM | GI50 (SN12C renal) 25.4 µM | GI50 (SNB-19 CNS) 7.06 µM | GI50 (SNB-75 CNS) 2.36 µM | GI50 (SR leukemia) 5.64 µM | GI50 (SW-620 colon) 6.76 µM | GI50 (T-47D breast) 15.4 µM | GI50 (TK-10 renal) 5.94 µM | GI50 (U251 CNS) 3.65 µM | GI50 (UACC-257 melanoma) 52 µM | GI50 (UACC-62 melanoma) 7.22 µM
57.1 µM: TGI (SNB-19 CNS)
33.3 µM: TGI (NCI-H23 lung)
20.4 µM: TGI (RXF 393 renal)
54.7 µM: TGI (NCI-H522 lung)
8.19 µM: TGI (SNB-75 CNS)
26.4 µM: TGI (TK-10 renal)
63.7 µM: TGI (COLO 205 colon)
72.4 µM: TGI (A549 NSCLC)
5.39 µM: TGI (MDA-MB-435)
26.8 µM: TGI (OVCAR-8 ovarian)
65.7 µM: TGI (SF-268 CNS)
16.3 µM: TGI (HOP-92 NSCLC)
63.6 µM: TGI (A498 renal)
48.3 µM: TGI (MALME-3M melanoma)
30.4 µM: TGI (OVCAR-3 ovarian)
14.4 µM: TGI (HOP-62 NSCLC)

Source: PubChem BioAssay (NCI)
